System: CD34^+ mPB cells
Test: Effect of garcinol and VPA on medium performance: 7-day expansion of CD34+ mPB cells in medium ± VPA or garcinol
Type: cell-based
Set-up: key to % CD34^+CD90^+ / Fold TNC / % CD34^+ / Fold CD34^+: (+) is baseline; (++) or greater improvement; (*) denotes no data (the cells died when garcinol was added to ACF)
Conditions: for % CD34^+CD90^+ / Fold TNC / % CD34^+ / Fold CD34^+: day 7, three donors
Protocol: In vitro expansion. Enriched CD34^+ cells from three donors of human mobilized peripheral blood (mPB, AllCells) were cultured in the following serum free media: HSC Medium (as provided herein), and the commercially available Stem Cell Growth Medium (SCGM, CellGenix GmbH), STEMSPAN™ Animal Component Free (ACF, STEMCELL Technologies), and STEMPRO™ 34 (Thermo Fisher Scientific). All media were supplemented with 100 ng/mL SCF, 100 ng/mL FLT-3L, 100 ng/mL TPO, 50 ng/mL IL-3, and 20 ng/mL IL-6 (all provided by Thermo Fisher Scientific). HSC expansion was initiated by culturing 5×10^3 CD34^+ cells/mL in a 48 well plate for 7 days in a humidified 37° C., 5% CO2 incubator. At day 7, total nucleated cell (TNC) number and % viability were assessed using a Countess II cell counter (Thermo Fisher Scientific), and cell phenotype was performed by flow cytometry.
Flow cytometry analysis. TNC were washed in phosphate-buffered saline (PBS) and incubated for 20 minutes at room temperature with LIVE/DEAD® Fixable Yellow stain in PBS. Cells were washed in flow cytometry staining buffer, and incubated with a cocktail of monoclonal antibodies against human cell surface antigens: CD34 PE-Cy7, CD90 APC, CD45RA Pacific Blue, for 30 minutes at 4° C. Cells were analyzed on a Attune NxT flow cytometer (Thermo Fisher Scientific), and FLOWJO® Software (version 7.6.5 Becton Dickinson).
Effect of small molecules to medium performance. To assess the contribution of valproic acid (VPA) and garcinol to competitor media, the small molecules were added to SCGM and STEMSPAN™ ACF either in combination or individually at the final concentration present in HSC Medium. To address whether there is a reduction in performance of HSC Medium when the small molecules were excluded from the formulation, either VPA or garcinol were removed during manufacture. CD34^+ mPB cells from three donors were cultured as described above (Example 1) in medium±VPA or garcinol, and compared with HSC medium, STEMSPAN™ ACF, SCGM or STEMSPAN™ ACF with STEMSPAN™ CD34^+ Expansion Supplement (10×). At day 7, cells were assessed for TNC, % viability, CD34^+, CD34^+CD90^+CD45RA^− cells as described above. To pool data points (CD34^+ expansion, TNC expansion) from the three donors, all conditions were normalized to SCGM media the standard error calculated. For pooling of % CD34^+ and % CD34^+CD90^+CD45RA^− data points in the three donors, the values were averaged and standard error calculated.

[1] = in HSC Medium made with the named small molecule(s) only
[2] = small molecule(s) added to SCGM
[3] = small molecule(s) added to ACF (STEMSPAN ACF)

Row | SMILES | % CD34^+CD90^+ [1] | Fold TNC [1] | % CD34^+ [2] | % CD34^+CD90^+ [2] | Fold CD34^+ [2] | Fold TNC [2] | performance (HSC expansion) (added to ACF) | % CD34^+CD90^+CD45RA^− (added to competitor media) | expansion of HSC / performance (added to competitor media (SCGM, STEMSPAN ACF)) | % CD34^+ [1] | Fold CD34^+ [1] | % CD34^+ [3] | % CD34^+CD90^+ [3]
1 | C=C(C)[C@@H](CC=C(C)C)C[C@@]12C[C@@H](CC=C(C)C)C(C)(C)[C@@](CC=C(C)C)(C(=O)C(C(=O)c3ccc(O)c(O)c3)=C1O)C2=O [Garcinol, garcinol] | + | + | + | + | + | + | – | – | – | – | – | – | –
2 | CCCC(CCC)C(=O)O [VPA, valproic acid] | – | + | ++ | ++ | ++ | ++ | boosted performance to HSC Medium (with garcinol and VPA) levels | improved | improved expansion of HSC | ++ | + | ++ | ++

— patent US20210386787A1, “Hematopoietic Stem and Progenitor Cell Expansion System” (LIFE TECHNOLOGIES CORPORATION, priority 2018, published 2021)
